The values below come from publication PMC6222798, “A Novel Class of Tyrosyl-DNA Phosphodiesterase 1 Inhibitors That Contains the Octahydro-2H-chromen-4-ol Scaffold” (Molecules : A Journal of Synthetic Chemistry and Natural …, 2018).

Experiment [1] deals with T1, human Tdp1 (residues 149-608) (Homo sapiens, UniProt Q9NUW8).
T1 construct: human Tdp1 (residues 149-608); made in house; host or cells: Escherichia coli BL21(DE3)
The experiment can be described thus: Intrinsic protein fluorescence-based Tdp1 binding assay. The note with it: supplementary figure legends; Tdp1 10 μM, 20 mM Tris, 250 mM NaCl, pH 8, triplicate. As to the method:
In addition to the inhibition assay, the binding of our compounds to Tdp1 was also evaluated. An intrinsic protein fluorescence-based assay, which we have previously applied to study the binding of esters combining monoterpenoid and adamantane fragments, was applied. In agreement with the inhibition data, all our compounds were relatively strong binders to Tdp1, with dissociation constants (KD) in the low μM region (Table 1 and Supplementary Figures S1–S7). […] This is possibly due to the large hydrophobic surface of Tdp1. The slight discrepancy between the measured KD and IC50 values is likely due to these non-specific binding events.
Synthetic DNA encoding human Tdp1 (residues 149-608 [2]) was cloned into pET-28a(+) (GenScript), which was then transformed into Escherichia coli BL21(DE3) for recombinant protein production. Protein production was induced with 1 mM IPTG at 28 °C with overnight incubation. Tdp1 was purified using affinity and size exclusion chromatography. Fluorescence was measured using a PerkinElmer EnSpire Multimode Reader. Tdp1 concentration was 10 μM and compound concentrations were 1 μM, 2.5 μM, 5 μM, 10 μM, 15 μM, 20 μM, 30 μM, 50 μM, 100 μM, 200 μM, 350 μM, 500 μM, and 750 μM. Buffer was 20 mM Tris and 250 mM NaCl (pH 8). Excitation wavelength was 280 nm and intrinsic fluorescence was measured between 300 and 450 nm. Control experiments with Tdp1 or compound on its own were also conducted. Background fluorescence arising from the compounds was subtracted from the final spectrum. The total volume per well was 30 μL. Dissociation constant (KD) values were calculated using the following formula (1), which takes non-specific binding into account. I = Imax ×[LT]/KD+[LT] +Ns[LT]
I indicates changes in fluorescence intensity from the titrations, Imax indicates the maximum fluorescence intensity change, [LT] is the titrated ligand concentration, and Ns is the non-specific term. Non-linear curve fitting was conducted using SigmaPlot 13.0 (Systat Software, San Jose, CA, USA). Experiments were conducted in triplicate and the errors shown are standard derivations.

Experiment [2] has as its target T2, Tdp1 (Homo sapiens, UniProt Q9NUW8).
T2 construct: inferred from pET 16B vector and Ni-chelating resin; made in house; host or cells: Escherichia coli BL21(DE3)
The experiment can be described thus: Real-time oligonucleotide biosensor-based Tdp1 inhibition assay. It is filed as biochemical. On the procedure:
The inhibition potency of our synthesised compounds against Tdp1 was evaluated by using a real-time oligonucleotide biosensor-based assay. In this assay, Tdp1 catalyses the removal of fluorophore quenchers from the 3′-end of a modified DNA substrate. […] Hexadecameric oligonucleotide was selected as a Tdp1 substrate, as it contains 5(6)-carboxyfluorescein (FAM) at the 5′-end and fluorophore quencher BHQ1 (Black Hole Quencher-1) at the 3′-end. This approach was used to determine the inhibitory properties of all the chromenes.
The pET 16B-Tdp1 was kindly provided by Dr. K.W. Caldecott (University of Sussex, United Kingdom). Recombinant Tdp1 was expressed in Escherichia coli BL21(DE3) and was purified by chromatography on Ni-chelating resin and phosphocellulose P11, as described in [29].
Real-time Tdp1 activity measurements were carried out as described in [9]. In brief, Tdp1-biosensor (50 nM) was incubated in a buffer that contains 50 mM Tris-HCl pH 8.0, 50 mM NaCl, and 7 mM β-mercaptoethanol (200 μL). The mixture was then supplemented with purified Tdp1 (1.3 nM) and various concentrations of the inhibitor. Fluorescence measurements (Ex485/Em520 nm) were carried out during the linear phase of reaction (from 0 to 8 min) every 55 s. The reactions were incubated at a constant temperature of 26 °C using a POLARstar OPTIMA fluorimeter (BMG LABTECH). The influence of the compounds was evaluated by comparing the fluorescence increase rate in their presence to that of 1.5% DMSO control wells. The data were imported into the MARS Data Analysis 2.0 program (BMG LABTECH), and IC50 values were calculated by non-linear curve fitting.

Experiment [3] has as its target T2, Tdp1. The note with it: Figure 1; cited from earlier work.

Each structure is given as a SMILES string. Like-named read-outs stand apart in the source and are kept apart here. A value given as a limit tells only on which side of the number the result lay.

T2 sequence (Q9NUW8 whole entry): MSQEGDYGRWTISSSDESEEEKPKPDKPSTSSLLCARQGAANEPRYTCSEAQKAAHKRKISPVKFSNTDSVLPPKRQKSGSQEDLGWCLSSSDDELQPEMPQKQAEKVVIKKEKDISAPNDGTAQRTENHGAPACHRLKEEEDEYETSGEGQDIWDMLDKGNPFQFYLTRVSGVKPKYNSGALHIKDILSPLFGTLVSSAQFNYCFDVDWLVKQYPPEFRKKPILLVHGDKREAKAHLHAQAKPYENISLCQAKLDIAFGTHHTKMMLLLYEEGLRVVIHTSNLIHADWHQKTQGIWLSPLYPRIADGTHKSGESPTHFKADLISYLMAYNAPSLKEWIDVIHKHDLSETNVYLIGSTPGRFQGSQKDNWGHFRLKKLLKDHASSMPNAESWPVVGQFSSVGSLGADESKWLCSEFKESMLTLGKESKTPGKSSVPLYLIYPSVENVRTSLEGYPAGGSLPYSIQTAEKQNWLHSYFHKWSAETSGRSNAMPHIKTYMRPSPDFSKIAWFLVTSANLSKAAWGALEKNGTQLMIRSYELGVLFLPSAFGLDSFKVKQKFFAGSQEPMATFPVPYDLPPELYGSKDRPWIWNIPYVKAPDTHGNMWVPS
T1 sequence (Q9NUW8 149-608): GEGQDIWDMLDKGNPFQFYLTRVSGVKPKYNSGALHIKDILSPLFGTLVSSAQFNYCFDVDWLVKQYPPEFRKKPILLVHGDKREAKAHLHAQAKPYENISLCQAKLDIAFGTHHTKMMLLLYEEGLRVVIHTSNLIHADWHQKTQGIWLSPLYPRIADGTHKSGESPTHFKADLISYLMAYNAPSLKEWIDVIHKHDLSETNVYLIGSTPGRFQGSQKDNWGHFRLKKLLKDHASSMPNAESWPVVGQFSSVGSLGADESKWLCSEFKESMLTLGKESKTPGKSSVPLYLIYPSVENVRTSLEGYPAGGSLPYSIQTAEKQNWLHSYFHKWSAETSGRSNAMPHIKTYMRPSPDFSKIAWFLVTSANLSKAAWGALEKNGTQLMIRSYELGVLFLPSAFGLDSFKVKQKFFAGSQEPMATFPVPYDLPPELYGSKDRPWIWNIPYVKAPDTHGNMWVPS

In general, Kd refers to the free concentration of one partner at which half of the binding sites on the other are occupied at equilibrium, for simple one-to-one binding. High values mean a looser complex, low ones a tighter complex. What is called IC50 is the concentration at which inhibition is half-maximal. `C[C@@H]1CC[C@@H]2[C@@H](C1)O[C@@H](c1ccc(NC(=O)C(F)(F)F)s1)C[C@]2(C)O` [(4S)-11, 2,2,2-Trifluoro-N-(5-((2R,4S,4aR,7R,8aR)-4-hydroxy-4,7-dimethyloctahydro-2H-chromen-2-yl)thiophen-2-yl)acetamide] came in with a Kd in experiment [1] of 2 ± 1.2 µM. For the same compound, the IC50 against Tdp1 [2] (Table 1, (4S) diastereomer) was 1.4 ± 0.3 µM.

With `C[C@@H]1CC[C@@H]2[C@@H](C1)O[C@@H](c1ccc([N+](=O)[O-])s1)C[C@@]2(C)O` [(4R)-8, (2R,4aR,7R,8aS)-4,7-Dimethyl-2-(5-nitrothiophen-2-yl)octahydro-2H-chromen-4-ols], the Kd in experiment [1] amounted to 23.3 ± 7.4 µM. Further, the IC50 is greater than 15 µM against Tdp1 [2] (Table 1, (4R) diastereomer) and greater than 15 µM against Tdp1 [2] (Table 2).

Consider `CC1(C)[C@H]2CC=C(COc3ccc4c5c(c(=O)oc4c3)CCC5)[C@@H]1C2` [Compound 3], for which the IC50 on Tdp1 [3] is 0.675 µM.

Turning to `CC(=O)Nc1ccc([C@H]2C[C@](C)(O)[C@@H]3CC[C@@H](C)C[C@H]3O2)s1` [(4S)-10, N-(5-((2R,4S,4aR,7R,8aR)-4-Hydroxy-4,7-dimethyloctahydro-2H-chromen-2-yl)thiophen-2-yl)acetamide], at Tdp1 [2] (Table 1, (4S) diastereomer), inhibition was half-maximal at 5.8 ± 3 µM (IC50).

`C[C@@H]1CC[C@@H]2[C@H](C1)O[C@@H](c1ccc(NC(=O)C34CC5CC(CC(C5)C3)C4)s1)C[C@]2(C)O` [(4S)-13, N-(5-((2R,4S,4aR,7R,8aS)-4-Hydroxy-4,7-dimethyloctahydro-2H-chromen-2-yl)thiophen-2-yl)adamantane-1-carboxamide] registered a Kd in experiment [1] of 17.9 ± 3.4 µM. For the same compound, the IC50 on Tdp1 [2] (Table 1, (4S) diastereomer) worked out at 1.24 ± 0.02 µM.

In turn, `C[C@@H]1CC[C@@H]2[C@@H](C1)O[C@@H](c1ccc(NC(=O)c3ccccc3)s1)C[C@@]2(C)O` [(4R)-12, N-(5-((2R,4R,4aR,7R,8aR)-4-Hydroxy-4,7-dimethyloctahydro-2H-chromen-2-yl)thiophen-2-yl)benzamide] showed a concentration for half-maximal inhibition (IC50) against Tdp1 [2] (Table 1, (4R) diastereomer) of 3.3 ± 0.2 µM.

`C[C@@H]1CC[C@@H]2[C@H](C1)O[C@@H](c1ccc(N)s1)C[C@@]2(C)O` [(4R)-9, (2R,4R,4aR,7R,8aS)-4,7-Dimethyl-2-(5-aminothiophen-2-yl)octahydro-2H-chromen-4-ol]: the IC50 is greater than 15 µM at Tdp1 [2] (Table 1, (4R) diastereomer) and greater than 15 µM on Tdp1 [2] (Table 2).

`C[C@@H]1CC[C@@H]2[C@@H](C1)O[C@@H](c1ccc([N+](=O)[O-])s1)C[C@]2(C)O` [(4S)-8, (2R,4aR,7R,8aS)-4,7-Dimethyl-2-(5-nitrothiophen-2-yl)octahydro-2H-chromen-4-ols]: the Kd in experiment [1] is 30.6 ± 9.33 µM. Moreover, the IC50 against Tdp1 [2] (Table 1, (4S) diastereomer) is greater than 15 µM; at Tdp1 [2] (Table 2), greater than 15 µM.

In experiment [1], `C[C@@H]1CC[C@@H]2[C@H](C1)O[C@@H](c1ccc(NC(=O)C34CC5CC(CC(C5)C3)C4)s1)C[C@@]2(C)O` [(4R)-13, N-(5-((2R,4R,4aR,7R,8aS)-4-Hydroxy-4,7-dimethyloctahydro-2H-chromen-2-yl)thiophen-2-yl)adamantane-1-carboxamide] gave a Kd of 12.4 ± 7.5 µM. The compound also came in with an IC50 against Tdp1 [2] (Table 1, (4R) diastereomer) of 2.8 ± 0.6 µM.

As for `C[C@@H]1CC[C@@H]2[C@@H](C1)O[C@@H](c1ccc(NC(=O)c3ccccc3)s1)C[C@]2(C)O` [(4S)-12, N-(5-((2R,4S,4aR,7R,8aR)-4-Hydroxy-4,7-dimethyloctahydro-2H-chromen-2-yl)thiophen-2-yl)benzamide], binding in experiment [1] was characterised by a dissociation constant (Kd) of 24.5 ± 5.7 µM. This compound also returned an IC50 at Tdp1 [2] (Table 1, (4S) diastereomer) of 5 ± 1.5 µM.

For the compound `C[C@@H]1CC[C@@H]2[C@H](C1)O[C@@H](c1ccc(N)s1)C[C@]2(C)O` [(4S)-9, (2R,4S,4aR,7R,8aS)-4,7-dimethyl-2-(5-aminothiophen-2-yl)octahydro-2H-chromen-4-ol], the IC50 against Tdp1 [2] (Table 1, (4S) diastereomer) was greater than 15 µM; against Tdp1 [2] (Table 2), greater than 15 µM.

Turning to `O=c1cccc([C@H]2[C@H](c3ccc(O)cc3)[C@H](c3cccc(=O)o3)[C@H]2c2ccc(O)cc2)o1` [Compound 2, achyrodimer F], the IC50 on Tdp1 [3] was 1 µM.

`CC(=O)Nc1ccc([C@H]2C[C@@](C)(O)[C@@H]3CC[C@@H](C)C[C@H]3O2)s1` [(4R)-10, N-(5-((2R,4R,4aR,7R,8aR)-4-Hydroxy-4,7-dimethyloctahydro-2H-chromen-2-yl)thiophen-2-yl)acetamide] registered a half-inhibitory concentration (IC50) on Tdp1 [2] (Table 1, (4R) diastereomer) of 2.9 ± 0.8 µM.

In turn, `C[C@@H]1CC[C@@H]2[C@@H](C1)O[C@@H](c1ccc(NC(=O)C(F)(F)F)s1)C[C@@]2(C)O` [(4R)-11, 2,2,2-Trifluoro-N-(5-((2R,4R,4aR,7R,8aR)-4-hydroxy-4,7-dimethyloctahydro-2H-chromen-2-yl)thiophen-2-yl)acetamide] showed a dissociation constant Kd in experiment [1] of 19.8 ± 2.4 µM. Also, it took 4 ± 0.4 µM to reach half-maximal inhibition against Tdp1 [2] (Table 1, (4R) diastereomer) (IC50).
